Measurements from patent publication US20260355196A1, “INHIBITORS AND DEGRADERS OF PIP4K PROTEIN” (Larkspur Biosciences, Inc., priority 2023, published 2026).

Biological target: T1, PIP4K2C (Homo sapiens, UniProt Q8TBX8)
T1 sequence (Q8TBX8 1-421): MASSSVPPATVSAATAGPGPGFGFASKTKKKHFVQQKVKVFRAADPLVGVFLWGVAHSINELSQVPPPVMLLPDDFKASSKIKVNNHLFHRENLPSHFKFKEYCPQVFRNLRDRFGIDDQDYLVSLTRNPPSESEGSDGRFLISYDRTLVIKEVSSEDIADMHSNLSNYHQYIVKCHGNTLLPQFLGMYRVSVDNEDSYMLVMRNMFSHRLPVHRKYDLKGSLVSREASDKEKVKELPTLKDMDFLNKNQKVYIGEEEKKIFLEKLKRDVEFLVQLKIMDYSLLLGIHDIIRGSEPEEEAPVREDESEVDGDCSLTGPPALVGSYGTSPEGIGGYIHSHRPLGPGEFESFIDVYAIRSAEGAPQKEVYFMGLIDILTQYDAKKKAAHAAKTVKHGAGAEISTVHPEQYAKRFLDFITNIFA
Experiment: Enzyme Binding Assay (KINOMEscan): active site-directed competition binding to an immobilized ligand
Parameters: purchased Eurofins DiscoverX, San Diego, CA 87-0007-1094
Conditions: 11-point dose response, duplicate, top concentration 5 micromolar; read-out: Pip4k2c Kd: IC50
Outline: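 IC50 values come from Hill-equation fits (Levenberg-Marquardt) to 11-point duplicate titrations starting at 5 micromolar. Read-out is competition of compound with an immobilized ligand for the kinase active site.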

IC50, 1000 to 5000 nM:
CNC(=O)[C@H]1CC[C@H](Nc2ncc(Cl)c(-c3ccc(=O)n(-c4ccc(F)cc4)c3)n2)CC1 [Compound 95, trans-(1r,4r)-4-((5-chloro-4-(1-(4-fluorophenyl)-6-oxo-1,6-dihydropyridin-3-yl)pyrimidin-2-yl)amino)-N-methylcyclohexane-1-carboxamide]
CC(=O)N1CCC(Nc2ncc(Cl)c(N3CCCCC3)n2)CC1 [Compound 24, 1-(4-((5-chloro-4-(piperidin-1-yl)pyrimidin-2-yl)amino)piperidin-1-yl)ethan-1-one]
CC(=O)N[C@H]1CC[C@H](Nc2ncc(F)c(-n3cc(-n4ccccc4=O)cn3)n2)CC1 [Compound 260, trans-N-((1r,4r)-4-((5-fluoro-4-(4-(2-oxopyridin-1 (2H)-yl)-1H-pyrazol-1-yl)pyrimidin-2-yl)amino)cyclohexyl)acetamide]

IC50, < 500 nM:
NC(=O)[C@H]1CC[C@H](Nc2ncc(F)c(-c3cccc(C(=O)N4CC[C@H](O)C4)c3)n2)CC1 [Compound 259, trans-(S)-4-((5-fluoro-4-(3-(3-hydroxypyrrolidine-1-carbonyl)phenyl)pyrimidin-2-yl)amino)cyclohexane-1-carboxamide]
NC(=O)[C@@H]1CC[C@H](Nc2ncc(F)c(-c3cccc(-c4ccc[nH]c4=O)c3)n2)C1 [Compound 223, (1R,3S)-3-((5-fluoro-4-(3-(2-oxo-1,2-dihydropyridin-3-yl)phenyl)pyrimidin-2-yl)amino)cyclopentane-1-carboxamide]
NC(=O)[C@H]1CC[C@H](Nc2ncc(F)c(-c3ccnc(N4CCCC4=O)c3)n2)CC1 [Compound 262, trans-(1r,4r)-4-((5-fluoro-4-(2-(2-oxopyrrolidin-1-yl)pyridin-4-yl)pyrimidin-2-yl)amino)cyclohexane-1-carboxamide]
CC(=O)N[C@H]1CC[C@@H](Nc2ncc(Cl)c(-c3cccc(-n4ccccc4=O)c3)n2)CC1 [Compound 93, cis-N-((1s,4s)-4-((5-chloro-4-(3-(2-oxopyridin-1 (2H)-yl)phenyl)pyrimidin-2-yl)amino)cyclohexyl)acetamide]
CC(=O)N[C@H]1CC[C@H](Nc2ncc(F)c(-c3cccc(-c4ccc(=O)[nH]c4)c3)n2)CC1 [Compound 203, trans-N-(4-((5-fluoro-4-(3-(6-oxo-1,6-dihydropyridin-3-yl)phenyl)pyrimidin-2-yl)amino)cyclohexyl)acetamide]
CC(=O)N1CCC[C@H](Nc2ncc(Cl)c(-c3ccnc(-c4ccc(F)cc4)c3)n2)C1 [Compound 141, (S)-1-(3-((5-chloro-4-(2-(4-fluorophenyl)pyridin-4-yl)pyrimidin-2-yl)amino)piperidin-1-yl)ethan-1-one]
CC(=O)N1CCC(Nc2ncc(F)c(-c3cccc(N4CCCOC4=O)c3)n2)CC1 [Compound 220, 3-[3-[2-[(1-acetyl-4-piperidyl)amino]-5-fluoro-pyrimidin-4-yl]phenyl]-1,3-oxazinan-2-one]
NC(=O)[C@@H]1CCC[C@H](Nc2ncc(Cl)c(-c3cccc(-n4ccccc4=O)c3)n2)C1 (relative stereo) [Compound 136, cis-3-((5-chloro-4-(3-(2-oxopyridin-1 (2H)-yl)phenyl)pyrimidin-2-yl)amino)cyclohexane-1-carboxamide]
NC(=O)[C@H]1CC[C@H](Nc2ncc(F)c(-c3cccc(-c4ccccc4)c3)n2)CC1 [Compound 610, trans-4-((4-([1,1′-biphenyl]-3-yl)-5-fluoropyrimidin-2-yl)amino)cyclohexane-1-carboxamide]
NC(=O)[C@H]1CC[C@H](Nc2ncc(F)c(-c3ccnc(-n4ccccc4=O)c3)n2)CC1 [Compound 623, trans-4-((5-fluoro-4-(2-oxo-2H-[1,2′-bipyridin]-4′-yl)pyrimidin-2-yl)amino)cyclohexane-1-carboxamide]
CC(=O)N[C@H]1CC[C@H](Nc2ncc(F)c(-c3cccc(N4CCCCC4=O)c3)n2)CC1 [Compound 256, trans-N-(4-((5-fluoro-4-(3-(2-oxopiperidin-1-yl)phenyl)pyrimidin-2-yl)amino)cyclohexyl)acetamide]
NC(=O)[C@H]1CC[C@H](Nc2ncc(F)c(-c3ccnc(C4(O)CCC4)c3)n2)CC1 [Compound 243, trans-4-((5-fluoro-4-(2-(1-hydroxycyclobutyl)pyridin-4-yl)pyrimidin-2-yl)amino)cyclohexane-1-carboxamide]
NC(=O)[C@H]1CC[C@H](Nc2ncc(F)c(-c3cccc(N4CCOCC4=O)c3)n2)CC1 [Compound 268, trans-4-((5-fluoro-4-(3-(3-oxomorpholino)phenyl)pyrimidin-2-yl)amino)cyclohexane-1-carboxamide]
NC(=O)[C@@H]1CCC[C@H](Nc2ncc(F)c(-c3cccc(N4CCOCC4=O)c3)n2)C1 (relative stereo) [Compound 269, cis-3-((5-fluoro-4-(3-(3-oxomorpholino)phenyl)pyrimidin-2-yl)amino)cyclohexane-1-carboxamide]
CC(=O)N[C@H]1CC[C@H](Nc2ncc(Cl)c(-c3cccc(-c4ccc[nH]c4=O)c3)n2)CC1 [Compound 154, trans-N-((1r,4r)-4-((5-chloro-4-(3-(2-oxo-1,2-dihydropyridin-3-yl)phenyl)pyrimidin-2-yl)amino)cyclohexyl)acetamide]
CNC(=O)[C@H]1C[C@H](Nc2ncc(Cl)c(-c3cccc(-c4ccc[nH]c4=O)c3)n2)C1 [Compound 139, trans-(1r,3r)-3-((5-chloro-4-(3-(2-oxo-1,2-dihydropyridin-3-yl)phenyl)pyrimidin-2-yl)amino)-N-methylcyclobutane-1-carboxamide]
NC(=O)[C@H]1CC[C@H](Nc2ncc(F)c(-c3cccc(N4CCOCC4)c3)n2)CC1 [Compound 607, trans-4-((5-fluoro-4-(3-morpholinophenyl)pyrimidin-2-yl)amino) cyclohexane-1-carboxamide]
CC(=O)N1CCCC(c2cccc(-c3nc(N[C@@H]4CCC[C@H](C(N)=O)C4)ncc3F)c2)C1 (relative stereo) [Compound 178, cis-3-((4-(3-(1-acetylpiperidin-3-yl)phenyl)-5-fluoropyrimidin-2-yl)amino)cyclohexane-1-carboxamide]
NC(=O)[C@@H]1CCC[C@H](Nc2ncc(Cl)c(-c3cccc(-n4ccc(F)cc4=O)c3)n2)C1 (racemic) [Compound 168, rac-(1R,3S)-3-((5-chloro-4-(3-(4-fluoro-2-oxopyridin-1 (2H)-yl)phenyl)pyrimidin-2-yl)amino)cyclohexane-1-carboxamide]
CC(=O)N1CCC(Nc2ncc(F)c(-c3cccc(C(=O)N4CC[C@@H](O)C4)c3)n2)CC1 [Compound 213, (R)-1-(4-((5-fluoro-4-(3-(3-hydroxypyrrolidine-1-carbonyl)phenyl)pyrimidin-2-yl)amino)piperidin-1-yl)ethan-1-one]
CNC(=O)[C@H]1C[C@H](Nc2ncc(Cl)c(-c3cc(C4CC4)[nH]n3)n2)C1 [Compound 162, trans-(1r,3r)-3-((5-chloro-4-(5-cyclopropyl-1H-pyrazol-3-yl)pyrimidin-2-yl)amino)-N-methylcyclobutane-1-carboxamide]
NC(=O)[C@H]1CC[C@H](Nc2ncc(F)c(-c3cccc(N4CCCCC4)c3)n2)CC1 [Compound 615, trans-4-((5-fluoro-4-(3-(piperidin-1-yl)phenyl)pyrimidin-2-yl)amino)cyclohexane-1-carboxamide]
CC(=O)N[C@H]1CC[C@H](Nc2ncc(Cl)c(-c3cnn(-c4ccc(F)cc4)c3)n2)CC1 [Compound 121, trans-N-((1r,4r)-4-((5-chloro-4-(1-(4-fluorophenyl)-1H-pyrazol-4-yl)pyrimidin-2-yl)amino)cyclohexyl)acetamide]
CC(=O)N[C@H]1CC[C@H](Nc2ncc(F)c(-c3ccnc(-n4ccccc4=O)c3)n2)CC1 [Compound 265, trans-N-(4-((5-fluoro-4-(2-oxo-2H-[1,2′-bipyridin]-4′-yl)pyrimidin-2-yl)amino)cyclohexyl)acetamide]
CC(=O)N[C@H]1CC[C@H](Nc2ncc(Cl)c(-c3ccnc(-c4ccc(F)cc4)c3)n2)CC1 [Compound 142, trans-N-((1r,4r)-4-((5-chloro-4-(2-(4-fluorophenyl)pyridin-4-yl)pyrimidin-2-yl)amino)cyclohexyl)acetamide]
NC(=O)[C@@H]1CCC[C@H](Nc2ncc(F)c(-c3ccnc(N4CCOCC4=O)c3)n2)C1 (relative stereo) [Compound 629, cis-3-((5-fluoro-4-(2-(3-oxomorpholino)pyridin-4-yl)pyrimidin-2-yl)amino)cyclohexane-1-carboxamide]

IC50, 500 to 1000 nM:
CC(=O)N1CCC(Nc2ncc(Cl)c(-c3ccc(F)cc3)n2)CC1 [Compound 27, 1-(4-((5-chloro-4-(4-fluorophenyl)pyrimidin-2-yl)amino)piperidin-1-yl)ethan-1-one]
NC(=O)[C@H]1CCC[C@@H](Nc2ncc(F)c(-c3cnn(-c4ccc(F)cc4)c3)n2)C1 (relative stereo) [Compound 43, cis-3-((5-fluoro-4-(1-(4-fluorophenyl)-1H-pyrazol-4-yl)pyrimidin-2-yl)amino)cyclohexane-1-carboxamide]
